System: KB
Experiment: Antiproliferative activity against human KB cells expressing human reduced folate carrier/folate receptor alpha after 96 hrs by celltiter-blue cell viability assay in presence of folic acid
Conditions: not given
Work on Nc1nc2sc(CCCCCc3ccc(C(=O)N[C@@H](CCC(=O)O)C(=O)O)cc3)cc2c(=O)[nH]1 yielded an IC50 of over 1 µM.
Nc1nc2sc(CCCCCCc3ccc(C(=O)N[C@@H](CCC(=O)O)C(=O)O)cc3)cc2c(=O)[nH]1 showed an IC50 of over 1 µM.

Biological target: Folate receptor alpha (Homo sapiens) (UniProt P15328)
Sequence (P15328 25-234 limits assumed): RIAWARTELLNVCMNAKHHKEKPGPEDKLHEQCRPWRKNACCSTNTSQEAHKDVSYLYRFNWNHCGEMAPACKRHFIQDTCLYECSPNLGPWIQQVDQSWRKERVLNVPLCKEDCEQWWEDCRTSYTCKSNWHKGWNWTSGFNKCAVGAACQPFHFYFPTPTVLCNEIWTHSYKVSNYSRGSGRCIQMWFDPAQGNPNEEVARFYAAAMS
Experiment: Displacement of [3H]folic acid from human folate receptor alpha in chinese hamster RT16 cells assessed as relative binding affinity relative to folic acid
Assay type: cell-based
Conditions: not given
With Nc1nc2sc(CCCCCc3ccc(C(=O)N[C@@H](CCC(=O)O)C(=O)O)cc3)cc2c(=O)[nH]1 the relative binding affinity (RBA) was over 0.8.
In the case of Nc1nc2sc(CCCCCCc3ccc(C(=O)N[C@@H](CCC(=O)O)C(=O)O)cc3)cc2c(=O)[nH]1, the relative binding affinity (RBA) is reported as over 0.8.

System: not listed separately
Experiment: Antiproliferative activity against chinese hamster RT16 cells expressing human folate receptor alpha after 96 hrs by celltiter-blue cell viability assay
Conditions: Cricetulus griseus, RT16, 96 h
Nc1nc2sc(CCCCCCc3ccc(C(=O)N[C@@H](CCC(=O)O)C(=O)O)cc3)cc2c(=O)[nH]1 showed an IC50 of 0.108 µM.

Biological target: T1, Trifunctional purine biosynthetic protein adenosine-3 (Homo sapiens, UniProt P22102)
T1 sequence (P22102 whole entry): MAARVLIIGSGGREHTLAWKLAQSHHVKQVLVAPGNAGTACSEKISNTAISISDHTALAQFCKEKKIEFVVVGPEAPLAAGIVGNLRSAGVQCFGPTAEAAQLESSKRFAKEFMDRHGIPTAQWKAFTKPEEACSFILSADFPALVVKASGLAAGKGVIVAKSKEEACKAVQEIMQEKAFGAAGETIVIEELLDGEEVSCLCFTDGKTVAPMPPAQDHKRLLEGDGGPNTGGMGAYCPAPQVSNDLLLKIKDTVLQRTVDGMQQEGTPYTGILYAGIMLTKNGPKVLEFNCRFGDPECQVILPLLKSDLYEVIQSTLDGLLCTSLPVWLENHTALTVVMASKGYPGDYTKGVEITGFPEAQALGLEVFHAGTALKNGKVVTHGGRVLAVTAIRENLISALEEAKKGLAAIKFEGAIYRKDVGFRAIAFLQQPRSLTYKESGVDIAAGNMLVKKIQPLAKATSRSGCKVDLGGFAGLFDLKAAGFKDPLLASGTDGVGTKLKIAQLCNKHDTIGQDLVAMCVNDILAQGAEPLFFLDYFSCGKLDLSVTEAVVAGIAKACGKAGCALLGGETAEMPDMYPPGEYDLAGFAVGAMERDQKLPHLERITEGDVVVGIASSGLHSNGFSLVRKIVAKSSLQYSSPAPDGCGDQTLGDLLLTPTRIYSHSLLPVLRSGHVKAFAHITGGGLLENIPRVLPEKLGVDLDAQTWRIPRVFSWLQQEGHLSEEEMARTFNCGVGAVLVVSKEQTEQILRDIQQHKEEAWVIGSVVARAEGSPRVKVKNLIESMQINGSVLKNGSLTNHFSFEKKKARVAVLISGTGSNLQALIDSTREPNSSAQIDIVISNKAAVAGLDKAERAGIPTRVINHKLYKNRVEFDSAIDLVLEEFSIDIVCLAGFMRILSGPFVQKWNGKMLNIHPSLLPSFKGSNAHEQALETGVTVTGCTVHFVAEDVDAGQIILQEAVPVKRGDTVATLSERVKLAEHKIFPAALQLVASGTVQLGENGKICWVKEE
Experiment: Inhibition of GARFTase in human KB cells assessed as inhibition of incorporation of [14C]glycine into [14C]formyl GAR after 30 mins in presence of azaserine
Conditions: not given
Nc1nc2sc(CCCCCc3ccc(C(=O)N[C@@H](CCC(=O)O)C(=O)O)cc3)cc2c(=O)[nH]1 gave an IC50 of 0.0236 µM.
In the case of Nc1nc2sc(CCCCCCc3ccc(C(=O)N[C@@H](CCC(=O)O)C(=O)O)cc3)cc2c(=O)[nH]1, the IC50 is reported as 0.0266 µM.

Biological target: Folate receptor beta (Homo sapiens) (UniProt P14207)
Sequence (P14207 17-230 limits assumed): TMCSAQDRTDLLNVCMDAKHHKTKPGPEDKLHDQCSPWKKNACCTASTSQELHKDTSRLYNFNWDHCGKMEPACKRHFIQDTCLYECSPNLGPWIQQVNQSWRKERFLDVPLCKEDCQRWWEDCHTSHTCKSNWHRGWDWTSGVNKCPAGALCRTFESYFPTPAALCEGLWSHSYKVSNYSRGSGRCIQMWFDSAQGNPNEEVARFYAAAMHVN
Experiment: Displacement of [3H]folic acid from human folate receptor beta in chinese hamster D4 cells assessed as relative binding affinity relative to folic acid
Assay type: cell-based
Conditions: not given
For Nc1nc2sc(CCCCCc3ccc(C(=O)N[C@@H](CCC(=O)O)C(=O)O)cc3)cc2c(=O)[nH]1, the relative binding affinity (RBA) was over 0.8.
Nc1nc2sc(CCCCCCc3ccc(C(=O)N[C@@H](CCC(=O)O)C(=O)O)cc3)cc2c(=O)[nH]1 gave a relative binding affinity (RBA) of over 0.8.

System: not listed separately
Experiment: Antiproliferative activity against chinese hamster MTXRII-OuaR2-4 cells expressing empty pCDNA3.1 after 96 hrs by celltiter-blue cell viability assay
Conditions: Cricetulus griseus
In the case of Nc1nc2sc(CCCCCc3ccc(C(=O)N[C@@H](CCC(=O)O)C(=O)O)cc3)cc2c(=O)[nH]1, the IC50 is reported as over 1 µM.
With Nc1nc2sc(CCCCCCc3ccc(C(=O)N[C@@H](CCC(=O)O)C(=O)O)cc3)cc2c(=O)[nH]1 the IC50 was over 1 µM.

System: not listed separately
Experiment: Antiproliferative activity against chinese hamster PC43-10 cells expressing human reduced folate carrier after 96 hrs by celltiter-blue cell viability assay
Conditions: Cricetulus griseus, PC43-10, 96 h
Molecule Nc1nc2sc(CCCCCc3ccc(C(=O)N[C@@H](CCC(=O)O)C(=O)O)cc3)cc2c(=O)[nH]1 has an IC50 of over 1 µM.
Work on Nc1nc2sc(CCCCCCc3ccc(C(=O)N[C@@H](CCC(=O)O)C(=O)O)cc3)cc2c(=O)[nH]1 yielded an IC50 of over 1 µM.

System: not listed separately
Experiment: Antiproliferative activity against chinese hamster RT16 cells expressing human folate receptor alpha after 96 hrs by celltiter-blue cell viability assay in presence of folic acid
Conditions: Cricetulus griseus, RT16, 96 h
Nc1nc2sc(CCCCCc3ccc(C(=O)N[C@@H](CCC(=O)O)C(=O)O)cc3)cc2c(=O)[nH]1 gave an IC50 of over 1 µM.
In the case of Nc1nc2sc(CCCCCCc3ccc(C(=O)N[C@@H](CCC(=O)O)C(=O)O)cc3)cc2c(=O)[nH]1, the IC50 is reported as over 1 µM.

System: IGROV-1
Experiment: Antiproliferative activity against human IGROV1 cells expressing human reduced folate carrier/folate receptor alpha after 96 hrs by celltiter-blue cell viability assay in presence of folic acid
Conditions: IGROV-1, 96 h
Nc1nc2sc(CCCCCc3ccc(C(=O)N[C@@H](CCC(=O)O)C(=O)O)cc3)cc2c(=O)[nH]1 gave an IC50 of over 1 µM.
With Nc1nc2sc(CCCCCCc3ccc(C(=O)N[C@@H](CCC(=O)O)C(=O)O)cc3)cc2c(=O)[nH]1 the IC50 was over 1 µM.

System: IGROV-1
Experiment: Antiproliferative activity against human IGROV1 cells expressing human reduced folate carrier/folate receptor alpha after 96 hrs by celltiter-blue cell viability assay
Conditions: IGROV-1, 96 h
With Nc1nc2sc(CCCCCCc3ccc(C(=O)N[C@@H](CCC(=O)O)C(=O)O)cc3)cc2c(=O)[nH]1 the IC50 was 0.334 µM.

System: not listed separately
Experiment: Antiproliferative activity against chinese hamster MTXRII-OuaR2-4 cells expressing human proton-coupled folate transporter after 96 hrs by celltiter-blue cell viability assay
Conditions: Cricetulus griseus
Molecule Nc1nc2sc(CCCCCc3ccc(C(=O)N[C@@H](CCC(=O)O)C(=O)O)cc3)cc2c(=O)[nH]1 has an IC50 of over 1 µM.
Nc1nc2sc(CCCCCCc3ccc(C(=O)N[C@@H](CCC(=O)O)C(=O)O)cc3)cc2c(=O)[nH]1 gave an IC50 of over 1 µM.

System: not listed separately
Experiment: Antiproliferative activity against chinese hamster D4 cells expressing human folate receptor beta after 96 hrs by celltiter-blue cell viability assay in presence of folic acid
Conditions: Cricetulus griseus, D4, 96 h
Nc1nc2sc(CCCCCc3ccc(C(=O)N[C@@H](CCC(=O)O)C(=O)O)cc3)cc2c(=O)[nH]1 showed an IC50 of over 1 µM.
Nc1nc2sc(CCCCCCc3ccc(C(=O)N[C@@H](CCC(=O)O)C(=O)O)cc3)cc2c(=O)[nH]1 gave an IC50 of over 1 µM.

System: KB
Experiment: Antiproliferative activity against human KB cells expressing human reduced folate carrier/folate receptor alpha after 96 hrs by celltiter-blue cell viability assay
Conditions: not given
With Nc1nc2sc(CCCCCc3ccc(C(=O)N[C@@H](CCC(=O)O)C(=O)O)cc3)cc2c(=O)[nH]1 the IC50 was 0.132 µM.

System: not listed separately
Experiment: Antiproliferative activity against chinese hamster D4 cells expressing human folate receptor beta after 96 hrs by celltiter-blue cell viability assay
Conditions: Cricetulus griseus, D4, 96 h
With Nc1nc2sc(CCCCCCc3ccc(C(=O)N[C@@H](CCC(=O)O)C(=O)O)cc3)cc2c(=O)[nH]1 the IC50 was 0.364 µM.

System: not listed separately
Experiment: Antiproliferative activity against chinese hamster MTXRII-OuaR2-4 cells expressing human reduced folate carrier after 96 hrs by celltiter-blue cell viability assay
Conditions: Cricetulus griseus
With Nc1nc2sc(CCCCCc3ccc(C(=O)N[C@@H](CCC(=O)O)C(=O)O)cc3)cc2c(=O)[nH]1 the IC50 was over 1 µM.
For Nc1nc2sc(CCCCCCc3ccc(C(=O)N[C@@H](CCC(=O)O)C(=O)O)cc3)cc2c(=O)[nH]1, the IC50 was over 1 µM.
